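1) Cells in 96-well plates. 2) Compound, 48 h, 5 concentrations. 3) Linear interpolation between surrounding doses. 4) Unreached endpoint = highest concentration. GI50 marks 50% less growth.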 Active and inactive are the calls of the source. Cut-off read from the data, not from the text of the source: active = GI50 up to about 1.1 µM and inactive = higher.
Experiments:
Experiment in all cases: DTP human tumour cell line panel, 48 h
CCRF-CEM = test system: CCRF-CEM
RXF 393 = test system: RXF 393
SNB-75 = test system: SNB-75
HCC 2998 = test system: HCC 2998
IGROV-1 = test system: IGROV-1
LXFL 529 = test system: LXFL 529
TK-10 = test system: TK-10
SF-268 = test system: SF-268
NCI-H226 = test system: NCI-H226
XF498 = test system: XF498
U-251 = test system: U-251
UO-31 = test system: UO-31
SK-MEL-2 = test system: SK-MEL-2
NCI-H522 = test system: NCI-H522
NCI-H460 = test system: NCI-H460
HCT-116 = test system: HCT-116
SF-295 = test system: SF-295
OVCAR-4 = test system: OVCAR-4
OVCAR-5 = test system: OVCAR-5
OVCAR-3 = test system: OVCAR-3
UACC-257 = test system: UACC-257
A549 = test system: A549
SK-MEL-28 = test system: SK-MEL-28
DLD-1 = test system: DLD-1
HL-60 = test system: HL-60
Malme-3M = test system: Malme-3M
SW-620 = test system: SW-620
EKVX = test system: EKVX
HOP-18 = test system: HOP-18
A498 = test system: A498
M14 = test system: M14
SF-539 = test system: SF-539
COLO 205 = test system: COLO 205
KM12 = test system: KM12
CAKI-1 = test system: CAKI-1
NCI-H23 = test system: NCI-H23
DMS-273 = test system: DMS-273
SNB-78 = test system: SNB-78
OVCAR-8 = test system: OVCAR-8
K562 = test system: K562
SN12C = test system: SN12C
HOP-92 = test system: HOP-92
HOP-62 = test system: HOP-62
KM-20L2 = test system: KM-20L2
RPMI-8226 = test system: RPMI-8226
HCT-15 = test system: HCT-15
786-0 = test system: 786-0
M19-MEL = test system: M19-MEL
SK-OV-3 = test system: SK-OV-3
UACC-62 = test system: UACC-62
RXF 631 = test system: RXF 631
ACHN = test system: ACHN
LOX IMVI = test system: LOX IMVI
DMS-114 = test system: DMS-114
SK-MEL-5 = test system: SK-MEL-5
SNB-19 = test system: SNB-19
HT-29 = test system: HT-29
MOLT-4 = test system: MOLT-4
SR = test system: SR

SMILES: O=C(O)c1cc2ccc(Cl)cc2c(O)c1C1=CCCCC1
- GI50 (CCRF-CEM): 41.7 µM (inactive)
- GI50 (RXF 393): 36.5 µM (inactive)
- GI50 (SNB-75): 19.4 µM (inactive)
- GI50 (HCC 2998): > 100 µM (inactive)
- GI50 (IGROV-1): 50 µM (inactive)
- GI50 (LXFL 529): 35.3 µM (inactive)
- GI50 (TK-10): 63.8 µM (inactive)
- GI50 (SF-268): 52.2 µM (inactive)
- GI50 (NCI-H226): 26.7 µM (inactive)
- GI50 (XF498): 18.7 µM (inactive)
- GI50 (U-251): 36.9 µM (inactive)
- GI50 (UO-31): 34.8 µM (inactive)
- GI50 (SK-MEL-2): 19.9 µM (inactive)
- GI50 (NCI-H522): 29 µM (inactive)
- GI50 (NCI-H460): 35.8 µM (inactive)
- GI50 (HCT-116): 37.1 µM (inactive)
- GI50 (SF-295): 32.3 µM (inactive)
- GI50 (OVCAR-4): 23.2 µM (inactive)
- GI50 (OVCAR-5): 54.1 µM (inactive)
- GI50 (OVCAR-3): 33.5 µM (inactive)
- GI50 (UACC-257): 31.5 µM (inactive)
- GI50 (A549): 39.9 µM (inactive)
- GI50 (SK-MEL-28): 66.5 µM (inactive)
- GI50 (DLD-1): 41.7 µM (inactive)
- GI50 (HL-60): 30.8 µM (inactive)
- GI50 (Malme-3M): 50.1 µM (inactive)
- GI50 (SW-620): 44.5 µM (inactive)
- GI50 (EKVX): 43.4 µM (inactive)
- GI50 (HOP-18): 60.5 µM (inactive)
- GI50 (A498): 32.6 µM (inactive)
- GI50 (M14): 43.7 µM (inactive)
- GI50 (SF-539): 36.6 µM (inactive)
- GI50 (COLO 205): 67.8 µM (inactive)
- GI50 (KM12): 42.4 µM (inactive)
- GI50 (CAKI-1): 33.2 µM (inactive)
- GI50 (NCI-H23): 26.4 µM (inactive)
- GI50 (DMS-273): 20 µM (inactive)
- GI50 (SNB-78): 27.4 µM (inactive)
- GI50 (OVCAR-8): 40.4 µM (inactive)
- GI50 (K562): 33.1 µM (inactive)
- GI50 (SN12C): 46.8 µM (inactive)
- GI50 (HOP-92): 23.2 µM (inactive)
- GI50 (HOP-62): 33.7 µM (inactive)
- GI50 (KM-20L2): 51.6 µM (inactive)
- GI50 (RPMI-8226): 34.6 µM (inactive)
- GI50 (HCT-15): 56.8 µM
- GI50 (786-0): 52.8 µM (inactive)
- GI50 (M19-MEL): 35.8 µM (inactive)
- GI50 (SK-OV-3): 42.7 µM (inactive)
- GI50 (UACC-62): 24.5 µM (inactive)
- GI50 (RXF 631): 32.1 µM (inactive)
- GI50 (ACHN): 65 µM (inactive)
- GI50 (LOX IMVI): 33 µM (inactive)
- GI50 (DMS-114): 24.8 µM (inactive)
- GI50 (SK-MEL-5): 30.3 µM (inactive)
- GI50 (SNB-19): 39 µM (inactive)
- GI50 (HT-29): 46.1 µM (inactive)
- GI50 (MOLT-4): 36.4 µM (inactive)
- GI50 (SR): 57.4 µM (inactive)

SMILES: COc1cc2c3c(c1OC)-c1ccccc1C(C(O)c1ccccc1)C3N(C)CC2 (centres undefined)
- GI50 (CCRF-CEM): 26.2 µM (inactive)
- GI50 (RXF 393): 12.4 µM (inactive)
- GI50 (SNB-75): 40 µM (inactive)
- GI50 (HCC 2998): 17.7 µM (inactive)
- GI50 (IGROV-1): 38.8 µM (inactive)
- GI50 (LXFL 529): 29.6 µM (inactive)
- GI50 (TK-10): 33.9 µM (inactive)
- GI50 (SF-268): 31.7 µM (inactive)
- GI50 (NCI-H226): 31 µM (inactive)
- GI50 (XF498): 19.1 µM (inactive)
- GI50 (U-251): 30 µM (inactive)
- GI50 (UO-31): 19.1 µM (inactive)
- GI50 (SK-MEL-2): 28.1 µM (inactive)
- GI50 (NCI-H522): 18.2 µM (inactive)
- GI50 (NCI-H460): 27.3 µM (inactive)
- GI50 (HCT-116): 19.6 µM (inactive)
- GI50 (SF-295): 44.5 µM (inactive)
- GI50 (OVCAR-5): > 100 µM (inactive)
- GI50 (OVCAR-3): 34.8 µM (inactive)
- GI50 (UACC-257): 20.5 µM (inactive)
- GI50 (A549): 39.5 µM (inactive)
- GI50 (SK-MEL-28): 16.4 µM (inactive)
- GI50 (DLD-1): 26.4 µM (inactive)
- GI50 (HL-60): 20 µM (inactive)
- GI50 (Malme-3M): 19.6 µM (inactive)
- GI50 (SW-620): 34.3 µM (inactive)
- GI50 (EKVX): 90.4 µM (inactive)
- GI50 (HOP-18): 82.8 µM (inactive)
- GI50 (M14): 18.1 µM (inactive)
- GI50 (SF-539): 21.4 µM (inactive)
- GI50 (COLO 205): 15.8 µM (inactive)
- GI50 (KM12): 25.8 µM (inactive)
- GI50 (NCI-H23): 85.5 µM (inactive)
- GI50 (DMS-273): 25.5 µM (inactive)
- GI50 (SNB-78): 65.9 µM (inactive)
- GI50 (OVCAR-8): 69.3 µM (inactive)
- GI50 (K562): 25.9 µM (inactive)
- GI50 (SN12C): 32.6 µM (inactive)
- GI50 (HOP-92): 53.3 µM (inactive)
- GI50 (HOP-62): 24.3 µM (inactive)
- GI50 (KM-20L2): 20.1 µM (inactive)
- GI50 (RPMI-8226): 21.9 µM (inactive)
- GI50 (HCT-15): 25.4 µM
- GI50 (786-0): 30.7 µM (inactive)
- GI50 (M19-MEL): 27.8 µM (inactive)
- GI50 (SK-OV-3): 37.3 µM (inactive)
- GI50 (UACC-62): 7.76 µM (inactive)
- GI50 (RXF 631): 22.2 µM (inactive)
- GI50 (ACHN): 39.1 µM (inactive)
- GI50 (LOX IMVI): 32.1 µM (inactive)
- GI50 (DMS-114): 17.6 µM (inactive)
- GI50 (SK-MEL-5): 14.4 µM (inactive)
- GI50 (SNB-19): 88.5 µM (inactive)
- GI50 (HT-29): 24.7 µM (inactive)
- GI50 (MOLT-4): 24.3 µM (inactive)
- GI50 (SR): 18 µM (inactive)

SMILES: Cc1cccc(C(C)C)c1NC(=O)CC1C(=O)Nc2ccccc2S1(=O)=O (centres undefined)
- GI50 (CCRF-CEM): 7.24 µM (inactive)
- GI50 (RXF 393): 10.2 µM (inactive)
- GI50 (SNB-75): 21.5 µM (inactive)
- GI50 (HCC 2998): 22.9 µM (inactive)
- GI50 (IGROV-1): 22.5 µM (inactive)
- GI50 (LXFL 529): 16.7 µM (inactive)
- GI50 (TK-10): 29 µM (inactive)
- GI50 (SF-268): 12.8 µM (inactive)
- GI50 (NCI-H226): 18.7 µM (inactive)
- GI50 (XF498): 27.6 µM (inactive)
- GI50 (U-251): 24.2 µM (inactive)
- GI50 (UO-31): 13.5 µM (inactive)
- GI50 (SK-MEL-2): > 38.3 µM (inactive)
- GI50 (NCI-H522): 7.01 µM (inactive)
- GI50 (NCI-H460): 12.8 µM (inactive)
- GI50 (HCT-116): 15.7 µM (inactive)
- GI50 (SF-295): 18.2 µM (inactive)
- GI50 (OVCAR-4): 12.2 µM (inactive)
- GI50 (OVCAR-5): 39.7 µM (inactive)
- GI50 (OVCAR-3): 12.2 µM (inactive)
- GI50 (UACC-257): 23.6 µM (inactive)
- GI50 (A549): 16.8 µM (inactive)
- GI50 (SK-MEL-28): 17.7 µM (inactive)
- GI50 (DLD-1): 9.25 µM (inactive)
- GI50 (HL-60): 5.28 µM (inactive)
- GI50 (Malme-3M): 16.3 µM (inactive)
- GI50 (SW-620): 7.03 µM (inactive)
- GI50 (EKVX): 16 µM (inactive)
- GI50 (HOP-18): 26.4 µM (inactive)
- GI50 (A498): 11.7 µM (inactive)
- GI50 (M14): 15.5 µM (inactive)
- GI50 (SF-539): 5.77 µM (inactive)
- GI50 (COLO 205): 25.2 µM (inactive)
- GI50 (KM12): 19.4 µM (inactive)
- GI50 (CAKI-1): 6.58 µM (inactive)
- GI50 (NCI-H23): 9.06 µM (inactive)
- GI50 (DMS-273): 6.03 µM (inactive)
- GI50 (SNB-78): 17.7 µM (inactive)
- GI50 (OVCAR-8): 14.4 µM (inactive)
- GI50 (K562): 2.22 µM (inactive)
- GI50 (SN12C): 23.2 µM (inactive)
- GI50 (HOP-92): 11.8 µM (inactive)
- GI50 (HOP-62): 54.6 µM (inactive)
- GI50 (KM-20L2): 18.1 µM (inactive)
- GI50 (RPMI-8226): 3.14 µM (inactive)
- GI50 (HCT-15): 5.11 µM
- GI50 (786-0): 13.9 µM (inactive)
- GI50 (M19-MEL): 18.6 µM (inactive)
- GI50 (SK-OV-3): > 100 µM (inactive)
- GI50 (UACC-62): 11.8 µM (inactive)
- GI50 (RXF 631): 13.4 µM (inactive)
- GI50 (ACHN): 22.9 µM (inactive)
- GI50 (LOX IMVI): 22.2 µM (inactive)
- GI50 (DMS-114): 13 µM (inactive)
- GI50 (SK-MEL-5): 12.3 µM (inactive)
- GI50 (SNB-19): 29.2 µM (inactive)
- GI50 (HT-29): 12.6 µM (inactive)
- GI50 (MOLT-4): 0.408 µM (active)
- GI50 (SR): 1.48 µM (inactive)

From ChEMBL document CHEMBL1201862, “PubChem BioAssay data set” (2004)
